According to patent US20160002204A1 (Board of Regents, The University of Texas System, priority 2014, published 2016):

Key:
[1] = biological target: T1, GLS1 (purified recombinant human GAC) (Homo sapiens, UniProt O94925); experiment: GLS1 enzymatic activity assay (dual-coupled, Amplex UltraRed/resorufin); assay type: biochemical
T1 sequence (O94925 55-598 isoform O94925-3 limits assumed): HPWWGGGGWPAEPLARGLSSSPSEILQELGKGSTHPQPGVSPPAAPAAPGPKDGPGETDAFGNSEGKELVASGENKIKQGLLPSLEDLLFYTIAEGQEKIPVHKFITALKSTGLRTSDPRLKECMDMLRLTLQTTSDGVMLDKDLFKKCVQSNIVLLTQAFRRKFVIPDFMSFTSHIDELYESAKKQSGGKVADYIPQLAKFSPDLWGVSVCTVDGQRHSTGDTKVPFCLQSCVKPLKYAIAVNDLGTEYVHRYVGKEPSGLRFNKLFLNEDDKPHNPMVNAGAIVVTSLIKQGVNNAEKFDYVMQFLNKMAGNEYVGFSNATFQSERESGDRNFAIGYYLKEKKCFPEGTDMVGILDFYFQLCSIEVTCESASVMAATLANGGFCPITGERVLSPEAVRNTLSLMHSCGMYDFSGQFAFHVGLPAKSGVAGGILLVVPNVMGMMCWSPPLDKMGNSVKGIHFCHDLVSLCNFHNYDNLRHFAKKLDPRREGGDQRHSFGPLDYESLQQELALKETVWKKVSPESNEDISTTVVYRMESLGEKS
In short: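 Recombinant human GAC (2 nM) preincubated with 50 mM potassium phosphate, then inhibitor (10 min each, RT); 1 mM glutamine, pH 7.4 Hepes buffer, 1% DMSO. Glutamate coupled via glutamate oxidase/HRP to resorufin (Ex 530/Em 590), kinetic or 20-min endpoint; IC50 by four-parameter logistic fit.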

A549 cells = experiment: A549 proliferation (viability) assay, Cell Titer Fluor, 72 hours; assay type: cell-based; conditions: Homo sapiens
In short: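 Fluorescence read-out (Cell Titer Fluor, 30 min at 37 °C after reagent) after 72 h compound exposure of A549 cells; EC50 by four-parameter logistic curve fit. Cells: 1000/well, RPMI 1640 + 10% dialyzed FBS, 0.5% DMSO final.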

IC50 [1] | EC50 (A549 cells) | Structure (SMILES)
0.1 to 0.5 µM | 0.5 to 5 µM | CC(C)CNC(=O)c1ccn(CCCCn2cc(C(=O)NCc3cccc(OC(F)(F)F)c3)nn2)c(=O)c1 [Example 62, N-(2-methylpropyl)-2-oxo-1-{4-[4-({[3-(trifluoromethoxy)phenyl]methyl}carbamoyl)-1H-1,2,3-triazol-1-yl]butyl}-1,2-dihydropyridine-4-carboxamide]
< 0.1 µM | 0.1 to 0.5 µM | O=C(NCC1CCCCC1)c1ccn(CCCCn2cc(C(=O)NCc3cccc(OC(F)(F)F)c3)nn2)c(=O)c1 [Example 63, N-(cyclohexylmethyl)-2-oxo-1-{4-[4-({[3-(trifluoro-methoxy)phenyl]methyl}carbamoyl)-1H-1,2,3-triazol-1-yl]butyl}-1,2-dihydropyridine-4-carboxamide]
< 0.1 µM | 0.1 to 0.5 µM | O=C(Nc1ccn(CCCCn2cc(C(=O)NCc3cccc(OC(F)(F)F)c3)nn2)c(=O)c1)OCc1cccc(OC(F)(F)F)c1 [Example 64, [3-(trifluoromethoxy)phenyl]methyl N-(2-oxo-1-{4-[4-({[3-(trifluoro-methoxy)phenyl]methyl}carbamoyl)-1H-1,2,3-triazol-1-yl]butyl}-1,2-dihydropyridin-4-yl)carbamate]
< 0.1 µM | 0.5 to 5 µM | COc1cccc(CNC(=O)c2cn(CCCCn3ccc(NC(=O)Cc4cccc(OC(F)(F)F)c4)cc3=O)nn2)c1 [Example 65, N-[(3-methoxyphenyl)methyl]-1-[4-(2-oxo-4-{2-[3-(trifluoromethoxy)phenyl]acetamido}-1,2-dihydropyridin-1-yl)butyl]-1H-1,2,3-triazole-4-carboxamide]
< 0.1 µM | 0.5 to 5 µM | O=C(Cc1cccc(OC(F)(F)F)c1)Nc1ccn(CCCCn2cc(C(=O)NCc3cccc(F)c3)nn2)c(=O)c1 [Example 66, N-[(3-fluorophenyl)methyl]-1-[4-(2-oxo-4-{2-[3-(trifluoromethoxy)phenyl]acetamido}-1,2-dihydropyridin-1-yl)butyl]-1H-1,2,3-triazole-4-carboxamide]
< 0.1 µM | 0.5 to 5 µM | COc1ccc(CNC(=O)c2cn(CCCCn3ccc(NC(=O)Cc4cccc(OC(F)(F)F)c4)cc3=O)nn2)cc1 [Example 67, N-[(4-methoxyphenyl)methyl]-1-[4-(2-oxo-4-{2-[3-(trifluoromethoxy)phenyl]acetamido}-1,2-dihydropyridin-1-yl)butyl]-1H-1,2,3-triazole-4-carboxamide]
< 0.1 µM | > 5 µM | CS(=O)(=O)c1ccc(CNC(=O)c2cn(CCCCn3ccc(NC(=O)Cc4cccc(OC(F)(F)F)c4)cc3=O)nn2)cc1 [Example 68, N-[(4-methanesulfonylphenyl)methyl]-1-[4-(2-oxo-4-{2-[3-(trifluoromethoxy)phenyl]acetamido}-1,2-dihydropyridin-1-yl)butyl]-1H-1,2,3-triazole-4-carboxamide]
< 0.1 µM | 0.5 to 5 µM | O=C(Cc1cccc(OC(F)(F)F)c1)Nc1ccn(CCCCn2cc(C(=O)NCc3cccnc3)nn2)c(=O)c1 [Example 69, 1-[4-(2-oxo-4-{2-[3-(trifluoromethoxy)phenyl]acetamido}-1,2-dihydropyridin-1-yl)butyl]-N-(pyridin-3-ylmethyl)-1H-1,2,3-triazole-4-carboxamide]
< 0.1 µM | 0.5 to 5 µM | Cc1ccc(CNC(=O)c2cn(CCCCn3ccc(NC(=O)Cc4cccc(OC(F)(F)F)c4)cc3=O)nn2)cn1 [Example 70, N-[(6-methylpyridin-3-yl)methyl]-1-[4-(2-oxo-4-{2-[3-(trifluoromethoxy)phenyl]acetamido}-1,2-dihydropyridin-1-yl)butyl]-1H-1,2,3-triazole-4-carboxamide]
0.5 to 5 µM | > 5 µM | O=C(Cc1ccccc1)Nc1ccn(CCCCCn2ccc(NC(=O)Cc3ccccc3)nc2=O)c(=O)n1 [Example 71, N-(2-oxo-1-{5-[2-oxo-4-(2-phenyl-acetamido)-1,2-dihydropyrimidin-1-yl]pentyl}-1,2-dihydropyrimidin-4-yl)-2-phenylacetamide]
0.5 to 5 µM | > 5 µM | Nc1nnc(CCCCn2ccc(NC(=O)Cc3ccccc3)nc2=O)s1 [Example 72, N-{1-[4-(5-amino-1,3,4-thiadiazol-2-yl)butyl]-2-oxo-1,2-dihydropyrimidin-4-yl}-2-phenylacetamide]
< 0.1 µM | 0.5 to 5 µM | O=C(Cc1ccccc1)Nc1ccn(CCCCc2nnc(NC(=O)Cc3ccccc3)s2)c(=O)n1 [Example 73, N-(2-oxo-1-{4-[5-(2-phenylacetamido)-1,3,4-thiadiazol-2-yl]butyl}-1,2-dihydropyrimidin-4-yl)-2-phenylacetamide]
0.5 to 5 µM | > 5 µM | O=C(Cc1ccccc1)Nc1ccn(CCCCCc2nnc(NC(=O)Cc3ccccc3)s2)c(=O)n1 [Example 74, N-(2-oxo-1-{5-[5-(2-phenylacetamido)-1,3,4-thiadiazol-2-yl]pentyl}-1,2-dihydropyrimidin-4-yl)-2-phenylacetamide]
< 0.1 µM | < 0.1 µM | O=C(Cc1cccc(OC(F)(F)F)c1)Nc1ccc(CCCCn2ccc(NC(=O)Cc3ccccc3)nc2=O)nn1 [Example 75, N-{2-oxo-1-[4-(6-{2-[3-(trifluoro-methoxy)phenyl]acetamido}pyridazin-3-yl)butyl]-1,2-dihydropyrimidin-4-yl}-2-phenylacetamide]
< 0.1 µM | 0.1 to 0.5 µM | CC(=O)Nc1ccn(CCCCc2ccc(NC(=O)Cc3cccc(OC(F)(F)F)c3)nn2)c(=O)n1 [Example 76, N-{6-[4-(4-acetamido-2-oxo-1,2-dihydropyrimidin-1-yl)butyl]pyridazin-3-yl}-2-[3-(trifluoromethoxy)phenyl]acetamide]
0.5 to 5 µM | > 5 µM | Nc1ccn(CCCCc2ccc(NC(=O)Cc3cccc(OC(F)(F)F)c3)nn2)c(=O)n1 [Example 77, N-{6-[4-(4-amino-2-oxo-1,2-dihydropyrimidin-1-yl)butyl]pyridazin-3-yl}-2-[3-(trifluoromethoxy)phenyl]acetamide]
< 0.1 µM | < 0.1 µM | O=C(Cc1cccc(OC(F)(F)F)c1)Nc1ccc(CCCCn2ccc(NC(=O)[C@@H](O)c3ccccc3)nc2=O)nn1 [Example 78, (2S)-2-hydroxy-N-{2-oxo-1-[4-(6-{2-[3-(trifluoro-methoxy)phenyl]acetamido}pyridazin-3-yl)butyl]-1,2-dihydropyrimidin-4-yl}-2-phenylacetamide]
0.5 to 5 µM | 0.5 to 5 µM | Nc1nnc(CCCCn2ccc(NC(=O)Cc3cccc(OC(F)(F)F)c3)nc2=O)s1 [Example 79, N-{1-[4-(5-amino-1,3,4-thiadiazol-2-yl)butyl]-2-oxo-1,2-dihydropyrimidin-4-yl}-2-[3-(trifluoromethoxy)phenyl]acetamide]
< 0.1 µM | 0.1 to 0.5 µM | O=C(Cc1cccc(OC(F)(F)F)c1)Nc1ccn(CCCCc2nnc(NC(=O)[C@@H](O)c3ccccc3)s2)c(=O)n1 [Example 80, (2S)-2-hydroxy-N-{5-[4-(2-oxo-4-{2-[3-(trifluoro-methoxy)phenyl]acetamido}-1,2-dihydropyrimidin-1-yl)butyl]-1,3,4-thiadiazol-2-yl}-2-phenylacetamide]
< 0.1 µM | 0.5 to 5 µM | O=C(Cc1cccc(OC(F)(F)F)c1)Nc1ccn(CCCCc2nnc(NC(=O)Cc3cccnc3)s2)c(=O)n1 [Example 81, N-[2-oxo-1-(4-{5-[2-(pyridin-3-yl)acetamido]-1,3,4-thiadiazol-2-yl]butyl)-1,2-dihydropyrimidin-4-yl]-2-[3-(trifluoromethoxy)phenyl]acetamide]
< 0.1 µM | > 5 µM | O=C(Cc1cccnc1)Nc1ccn(CCCCc2nnc(NC(=O)Cc3ccccc3)s2)c(=O)n1 [Example 82, N-[5-(4-{2-oxo-4-[2-(pyridin-3-yl)acetamido]-1,2-dihydropyrimidin-1-yl}butyl)-1,3,4-thiadiazol-2-yl]-2-phenylacetamide]
< 0.1 µM | > 5 µM | O=C(Cc1ccccc1)Nc1nnc(CCCCn2ccc(NC(=O)[C@@H](O)c3ccccc3)nc2=O)s1 [Example 83, (2S)-2-hydroxy-N-(2-oxo-1-{4-[5-(2-phenylacetamido)-1,3,4-thiadiazol-2-yl]butyl}-1,2-dihydropyrimidin-4-yl)-2-phenylacetamide]
< 0.1 µM | > 5 µM | O=C(Cc1ccccc1)Nc1nnc(CCCCn2ccc(NC(=O)[C@H](O)c3ccccc3)nc2=O)s1 [Example 84, (2R)-2-hydroxy-N-(2-oxo-1-{4-[5-(2-phenylacetamido)-1,3,4-thiadiazol-2-yl]butyl}-1,2-dihydropyrimidin-4-yl)-2-phenylacetamide]
< 0.1 µM | 0.1 to 0.5 µM | CC(C)(C)OC(=O)NCc1cccc(CC(=O)Nc2ccn(CCCCc3nnc(NC(=O)Cc4ccccc4)s3)c(=O)n2)c1 [Example 85, tert-butyl N-[(3-{[(2-oxo-1-{4-[5-(2-phenylacetamido)-1,3,4-thiadiazol-2-yl]butyl}-1,2-dihydropyrimidin-4-yl)carbamoyl]methyl}phenyl)methyl] carbamate]
